Tested on: not listed separately
Experiment: Inhibition of pig trypsin
Parameters: species or system Sus scrofa
For `COc1ccc(OC)c(NC(=O)c2cc(-c3ccc(NC(=N)N)cc3)[nH]n2)c1`, the IC50 was 2100 µM.

Biological target: Acrosin (Homo sapiens, UniProt P10323)
Sequence (P10323 20-42 limits assumed): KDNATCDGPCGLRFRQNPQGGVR
Sequence (P10323 43-343 limits assumed): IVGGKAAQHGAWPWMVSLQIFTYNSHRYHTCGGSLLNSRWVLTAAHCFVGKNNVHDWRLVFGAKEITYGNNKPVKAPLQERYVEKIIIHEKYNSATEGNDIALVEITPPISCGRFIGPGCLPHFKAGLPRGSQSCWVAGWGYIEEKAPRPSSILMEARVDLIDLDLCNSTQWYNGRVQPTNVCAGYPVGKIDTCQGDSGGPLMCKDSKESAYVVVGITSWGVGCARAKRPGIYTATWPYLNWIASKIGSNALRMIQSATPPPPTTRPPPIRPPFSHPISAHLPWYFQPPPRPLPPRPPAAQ
Experiment: Inhibition of acrosin in human liquefied human semen using BAPNA incubated at 37.8 degC for 3 hrs by spectrophotometry
In the case of `COC(=O)c1ccc(OC(=O)c2ccc(NC(=N)N)cc2)cc1`, the IC50 is reported as 2.41 µM. With `N=C(N)Nc1ccc(-c2cc(C(=O)Nc3ccc(F)cc3)n[nH]2)cc1` the IC50 was 24.5 µM. For `N=C(N)Nc1ccc(-c2cc(C(=O)Nc3ccccc3)n[nH]2)cc1`, the IC50 was 15.1 µM. Work on `COc1ccc(NC(=O)c2cc(-c3ccc(NC(=N)N)cc3)[nH]n2)c(OC)c1` yielded an IC50 of 2.38 µM. With `COc1ccc(OC)c(NC(=O)c2cc(-c3ccc(NC(=N)N)cc3)[nH]n2)c1` the IC50 was 1.26 µM. For `Cc1cccc(NC(=O)c2cc(-c3ccc(NC(=N)N)cc3)[nH]n2)c1`, the IC50 was 9.43 µM. With `COc1ccc(NC(=O)c2cc(-c3ccc(NC(=N)N)cc3)[nH]n2)cc1` the IC50 was 11.3 µM. `N=C(N)Nc1ccc(-c2cc(C(=O)Nc3cccc(Cl)c3)n[nH]2)cc1` showed an IC50 of 17.7 µM. Compound `N=C(N)Nc1ccc(-c2cc(C(=O)Nc3ccc(Br)cc3)n[nH]2)cc1` has an IC50 of 16.1 µM. `CCOC(=O)c1ccccc1NC(=O)c1cc(-c2ccc(NC(=N)N)cc2)[nH]n1` gave an IC50 of 5.73 µM. `N=C(N)Nc1ccc(-c2cc(C(=O)Nc3ccc4c(c3)OCCO4)n[nH]2)cc1` showed an IC50 of 25.4 µM. `Cc1ccccc1NC(=O)c1cc(-c2ccc(NC(=N)N)cc2)[nH]n1` gave an IC50 of 10.9 µM. In the case of `Cc1cc(C)cc(NC(=O)c2cc(-c3ccc(NC(=N)N)cc3)[nH]n2)c1`, the IC50 is reported as 9.46 µM. Compound `N=C(N)Nc1ccc(-c2cc(C(=O)Nc3ccc(Cl)cc3)n[nH]2)cc1` has an IC50 of 23.9 µM. `Cc1cccc(NC(=O)c2cc(-c3ccc(NC(=N)N)cc3)[nH]n2)c1C` showed an IC50 of 8.45 µM. For `N=C(N)Nc1ccc(-c2cc(C(=O)Nc3cccc(C(F)(F)F)c3)n[nH]2)cc1`, the IC50 was 23.7 µM. In the case of `Cc1ccc(C)c(NC(=O)c2cc(-c3ccc(NC(=N)N)cc3)[nH]n2)c1`, the IC50 is reported as 7.47 µM. With `CCN(CC)c1ccc(NC(=O)c2cc(-c3ccc(NC(=N)N)cc3)[nH]n2)cc1` the IC50 was 25.9 µM. `N=C(N)Nc1ccc(-c2cc(C(=O)Nc3cccc(Br)c3)n[nH]2)cc1` gave an IC50 of 13.1 µM. `N=C(N)Nc1ccc(-c2cc(C(=O)Nc3cccc4ccccc34)n[nH]2)cc1` gave an IC50 of 24.4 µM. Work on `CC(C)(C)c1ccc(NC(=O)c2cc(-c3ccc(NC(=N)N)cc3)[nH]n2)cc1` yielded an IC50 of 5.87 µM. In the case of `Cc1cccc(C)c1NC(=O)c1cc(-c2ccc(NC(=N)N)cc2)[nH]n1`, the IC50 is reported as 4.32 µM. With `COc1ccc(NC(=O)c2cc(-c3ccc(NC(=N)N)cc3)[nH]n2)cc1OC` the IC50 was 3.44 µM. Work on `N=C(N)Nc1ccc(-c2cc(C(=O)Nc3ccc(O)cc3)n[nH]2)cc1` yielded an IC50 of 28.3 µM. For `N=C(N)Nc1ccc(-c2cc(C(=O)Nc3ccc(Nc4ccccc4)cc3)n[nH]2)cc1`, the IC50 was 26.8 µM. `COc1cccc(NC(=O)c2cc(-c3ccc(NC(=N)N)cc3)[nH]n2)c1` showed an IC50 of 2.42 µM. `N=C(N)Nc1ccc(-c2cc(C(=O)Nc3ccc(C(F)(F)F)cc3)n[nH]2)cc1` showed an IC50 of 16.6 µM. For `CCOC(=O)c1cc(-c2ccc(NC(=N)N)cc2)[nH]n1`, the IC50 was > 100 µM. For `N=C(N)Nc1ccc(-c2cc(C(=O)O)n[nH]2)cc1`, the IC50 was > 100 µM.
